Our source for the IC50 values is patent publication US12365667B2, “Sulfone pyridine alkyl amide-substituted heteroaryl compounds” (BRISTOL-MYERS SQUIBB COMPANY, priority 2017, dated 2025).

This experiment has as its system IFNα-induced STAT phosphorylation (pSTAT5) in human whole blood. Briefly: IFNα-Induced STAT Phosphorylation in Human Whole Blood. Format: cell-based. To be noted: 1 h incubation with compound, 1000 U/mL recombinant human IFNα A/D for 15 min, pSTAT5 in CD3 positive population, read-out: IFNα-Induced Stat Phosph. (IC50).

The structures appear in SMILES notation. Like-named read-outs stand apart in the source and are kept apart here.

One may read the IC50 as the concentration needed to halve the response being measured. As to `CNC(=O)c1nnc(NC(=O)CC2CC2)cc1Nc1ncccc1S(C)(=O)=O` [Example 164], the IC50 was found to be 0.088 µM.

With `CNC(=O)c1nnc(Nc2cc(OC)c(C(C)(C)O)cn2)cc1Nc1ncccc1S(C)(=O)=O` [Example 36], the IC50 is 0.022 µM.

For the compound `CNC(=O)c1nnc(Nc2cnc(C(F)(F)F)cn2)cc1Nc1ncccc1S(C)(=O)=O` [Example 95], the IC50 is 0.133 µM.

As for `CNC(=O)c1nnc(Nc2ccn(C)n2)cc1Nc1nc(OC)ccc1S(C)(=O)=O` [Example 204], the IC50 was determined as 0.579 µM.

As to `CNC(=O)c1nnc(Nc2cccc(F)n2)cc1Nc1ncccc1S(C)(=O)=O` [Example 5], the half-maximal inhibitory concentration (IC50) stood at 0.013 µM.

For `CNC(=O)c1nnc(Nc2cn(C)nn2)cc1Nc1ncccc1S(C)(=O)=O` [Example 53], the IC50 amounted to 0.132 µM.

`[2H]C([2H])([2H])NC(=O)c1nnc(Nc2ccc(C(C)C)nn2)cc1Nc1ncccc1S(C)(=O)=O` [Example 247, 6-((6-isopropylpyridazin-3-yl)amino)-N-(methyl-d3)-4-((3-(methylsulfonyl)pyridin-2-yl)amino)pyridazine-3-carboxamide]: the IC50 (Homo sapiens) came out at 0.006 µM.

`CNC(=O)c1nnc(NC(=O)C2CC2)cc1Nc1nc(OC)ccc1S(C)(=O)=O` [Example 200]: the IC50 was determined as 0.198 µM.

In the case of `CNC(=O)c1nnc(Nc2ccn(CC(F)F)n2)cc1Nc1ncccc1S(C)(=O)=O` [Example 20], the IC50 stood at 0.047 µM.

Take `CNC(=O)c1nnc(Nc2ccc(C(F)(F)F)cn2)cc1Nc1ncccc1S(C)(=O)=O` [Example 91]: the IC50 worked out at 0.043 µM.

`CNC(=O)c1nnc(Nc2ccc(C)cn2)cc1Nc1ncccc1S(C)(=O)=O` [Example 10]: the IC50 came out at 0.021 µM.

For the compound `CNC(=O)c1cnc(Nc2ccc(C#N)cn2)cc1Nc1ncccc1S(C)(=O)=O` [Example 220], the IC50 is 0.015 µM.

For `CNC(=O)c1cnc(Nc2cc(C(F)(F)F)ncn2)cc1Nc1ncccc1S(C)(=O)=O` [Example 225], the IC50 turned out to be 0.164 µM.

As to `CNC(=O)c1nnc(Nc2ccc(OC)nn2)cc1Nc1ncccc1[S+](C)[O-]` (stereo not shown) [Example 255], the IC50 is 0.466 µM.

Turning to `CNC(=O)c1nnc(NC(=O)C(C)C)cc1Nc1ncccc1S(C)(=O)=O` [Example 131], the IC50 came out at 0.434 µM.

Turning to `CNC(=O)c1nnc(NC(=O)[C@@H]2C[C@H]2F)cc1Nc1ncccc1S(C)(=O)=O` [Example 43], the IC50 was found to be 0.026 µM.

Take `CCCOC(=O)Nc1cc(Nc2ncccc2S(C)(=O)=O)c(C(=O)NC)nn1` [Example 136]: the IC50 was determined as 0.349 µM.

On to `CNC(=O)c1nnc(Nc2cc(C(F)(F)F)ncn2)cc1Nc1ncccc1S(C)(=O)=O` [Example 27], for which the IC50 is 0.088 µM.

With `CNC(=O)c1nnc(Nc2ccc(OC)nn2)cc1Nc1ncccc1S(C)(=O)=O` [Example 7], the IC50 was 0.042 µM.

In the case of `CNC(=O)c1nnc(Nc2ccc(C(C)(C)NC(=O)OC)cn2)cc1Nc1ncccc1S(C)(=O)=O` [Example 74], the IC50 came to 0.004 µM.

Take `[2H]C([2H])([2H])NC(=O)c1nnc(Nc2ccn(C)n2)cc1Nc1ncccc1S(C)(=O)=O` [Example 166, N-trideuteromethyl-6-((1-methyl-1H-pyrazol-3-yl)amino)-4-((3-(methylsulfonyl)pyridin-2-yl)amino)pyridazine-3-carboxamide]: the IC50 (Homo sapiens) amounted to 0.04 µM.

On to `CNC(=O)c1nnc(Nc2ccc(COC)cn2)cc1Nc1ncccc1S(C)(=O)=O` [Example 154], for which the IC50 is 0.006 µM.

Take `CNC(=O)c1nnc(Nc2ccc(C(C)(C)NC3COC3)cn2)cc1Nc1ncccc1S(C)(=O)=O` [compound 170]: the IC50 was 0.011 µM.

For the compound `CNC(=O)c1nnc(Nc2cc(C(F)(F)F)n(C)n2)cc1Nc1ncccc1S(C)(=O)=O` [Example 88], the IC50 is 0.047 µM.

Take `CNC(=O)c1nnc(Nc2cc(COC)ncn2)cc1Nc1ncccc1S(C)(=O)=O` [Example 101]: the IC50 is 0.095 µM.

Turning to `[2H]C([2H])([2H])NC(=O)c1nnc(Nc2cncc(C)n2)cc1Nc1ncccc1S(C)(=O)=O` [Example 173, N-(methyl-d3)-6-((6-methylpyrazin-2-yl)amino)-4-((3-(methylsulfonyl)pyridin-2-yl)amino)pyridazine-3-carboxamide], the IC50 (Homo sapiens) stood at 0.017 µM.

For the compound `CNC(=O)c1nnc(Nc2cc(C3CC3)nc(C)n2)cc1Nc1ncccc1S(C)(=O)=O` [Example 165], the IC50 is 0.023 µM.

For `CCOC(=O)NC(C)(C)c1ccc(Nc2cc(Nc3ncccc3S(C)(=O)=O)c(C(=O)NC)nn2)nc1` [Example 79], the IC50 worked out at 0.024 µM.

In the case of `CNC(=O)c1nnc(Nc2cc(C(F)(F)F)c(C(=O)N(C)C)cn2)cc1Nc1ncccc1S(C)(=O)=O` [Example 50], the IC50 stood at 0.03 µM.

`CNC(=O)c1nnc(Nc2ccc(C(C)(C)O)c(F)n2)cc1Nc1ncccc1S(C)(=O)=O` [Example 151]: the IC50 came out at 0.002 µM.

For `CNC(=O)c1nnc(Nc2ccc(F)nn2)cc1Nc1ncccc1S(C)(=O)=O` [Example 86], the IC50 turned out to be 0.04 µM.

For `CNC(=O)c1nnc(Nc2ccc(Cl)nn2)cc1Nc1ncccc1S(C)(=O)=O` [Example 90], the IC50 was 0.013 µM.

Take `CCC(=O)Nc1cc(Nc2nc(F)ccc2S(C)(=O)=O)c(C(=O)NC)nn1` [Example 179]: the IC50 came out at 1.06 µM.

For `CNC(=O)c1nnc(Nc2cc(C(F)(F)F)c(C(=O)N(C)C3CC3)cn2)cc1Nc1ncccc1S(C)(=O)=O` [Example 52], the IC50 was 0.092 µM.

For the compound `CNC(=O)c1nnc(NC(=O)C2Cc3ccccc32)cc1Nc1ncccc1S(C)(=O)=O` (stereo not shown) [Example 66], the IC50 came out at 1.24 µM.

As to `CCCCNC(=O)Nc1cc(Nc2nc(C)ccc2S(C)(=O)=O)c(C(=O)NC)nn1` [Example 193], the IC50 was 0.165 µM.

In the case of `CNC(=O)c1nnc(NC(=O)C=C(C)C)cc1Nc1ncccc1S(C)(=O)=O` [Example 120], the IC50 came out at 0.062 µM.

Turning to `CNC(=O)c1nnc(Nc2cccc(C3CC3)n2)cc1Nc1ncccc1S(C)(=O)=O` [Example 152], the IC50 came out at 0.04 µM.

In the case of `CNC(=O)c1nnc(NC(=O)C2CC(F)C2)cc1Nc1ncccc1S(C)(=O)=O` (single isomer, unassigned) [Example 126], the half-inhibitory concentration (IC50) was 0.343 µM.

Regarding `CNC(=O)c1nnc(Nc2cccc(C)n2)cc1Nc1ncccc1S(C)(=O)=O` [Example 82], the IC50 stood at 0.037 µM.

`CNC(=O)c1nnc(Nc2cnc(COC)cn2)cc1Nc1ncccc1S(C)(=O)=O` [Example 42]: the IC50 amounted to 0.015 µM.

`CNC(=O)c1nnc(NC2CC2)cc1Nc1ncccc1S(C)(=O)=O` [Example 23]: the IC50 stood at 2.14 µM.

For the compound `CNC(=O)c1nnc(Nc2ccc(C(C)(C)C)nn2)cc1Nc1ncccc1S(C)(=O)=O` [Example 245, 6-((6-(tert-butyl)pyridazinyl-3-yl)amino)-N-(methyl-d3)-4-((3-(methylsulfonyl)pyridin-2-yl)amino)pyridazine-3-carboxamide], the IC50 is 0.01 µM.

In the case of `CCOc1cc(Nc2cc(Nc3ncccc3S(C)(=O)=O)c(C(=O)NC)nn2)ncc1C(=O)NC1CC1` [Example 148], the IC50 worked out at 0.408 µM.

`CCC(O)(CC)c1cnc(Nc2cc(Nc3ncccc3S(C)(=O)=O)c(C(=O)NC)nn2)cc1Cl` [Example 147]: the IC50 came to 0.231 µM.

As for `CNC(=O)c1nnc(Nc2cc(C(C)(C)O)c(Cl)cn2)cc1Nc1ncccc1S(C)(=O)=O` [Example 29], the IC50 stood at 0.092 µM.

In the case of `CNC(=O)c1nnc(Nc2cc(COC)ccn2)cc1Nc1ncccc1S(C)(=O)=O` [Example 156], the IC50 was 0.007 µM.

With `CNC(=O)c1nnc(Nc2ccc(N3CCOCC3)cn2)cc1Nc1nc(OC)ccc1S(C)(=O)=O` [Example 203], the IC50 was 0.046 µM.

In the case of `CNC(=O)c1nnc(Nc2ccc(N3CCOCC3)nn2)cc1Nc1ncccc1S(C)(=O)=O` [Example 110], the IC50 worked out at 0.02 µM.
